Counter-ions that a name gives are not always drawn.
target: human Glycogen Synthase Kinase-3 beta (hGSK-3β) (Homo sapiens (Human), UniProt P49841); assay: Biochemical hGSK-3Beta Assay (33P-ATP phosphorylation of biotinylated peptide substrate, Flash-plate); settings: 0.0125 U hGSK-3β, 10 μM ATP, 1 μM substrate, 30 minutes at room temperature; read-out: GSK-3β IC50
Description: Methods—Biochemical hGSK-3Beta Assay
Compounds were tested for their ability to inhibit human Glycogen Synthase Kinase-3 beta (hGSK-3β) to phosphorylate biotin-[…](pS)EDEEE. Compounds were incubated with 0.5 μCi 33P-ATP, 10 μM ATP, 0.0125 U hGSK-3β (Upstate cell signaling solutions) and 1 μM substrate (biotin-[…](pS)EDEEE) in 50 mM HEPES, 10 mM MgCl2, […], 1 mM DTT, 0.0075% Triton, 2% DMSO (total volume 50 μL) for 30 minutes at room temperature. The incubation was stopped by addition of an equal volume of 100 mM EDTA, 4M NaCl. 80 μL of this mixture was added to streptavidin-coated Flash-plates (PerkinElmer). Following a wash step, 33P incorporation was quantified on a MicroBeta microplate liquid scintillation counter (Perkin Elmer). IC50s were determined by fitting a sigmoidal dose-response curve to the counts obtained at the different concentrations in GraphPad Prism.

human Glycogen Synthase Kinase-3 beta (hGSK-3β), sequence (P49841 whole entry): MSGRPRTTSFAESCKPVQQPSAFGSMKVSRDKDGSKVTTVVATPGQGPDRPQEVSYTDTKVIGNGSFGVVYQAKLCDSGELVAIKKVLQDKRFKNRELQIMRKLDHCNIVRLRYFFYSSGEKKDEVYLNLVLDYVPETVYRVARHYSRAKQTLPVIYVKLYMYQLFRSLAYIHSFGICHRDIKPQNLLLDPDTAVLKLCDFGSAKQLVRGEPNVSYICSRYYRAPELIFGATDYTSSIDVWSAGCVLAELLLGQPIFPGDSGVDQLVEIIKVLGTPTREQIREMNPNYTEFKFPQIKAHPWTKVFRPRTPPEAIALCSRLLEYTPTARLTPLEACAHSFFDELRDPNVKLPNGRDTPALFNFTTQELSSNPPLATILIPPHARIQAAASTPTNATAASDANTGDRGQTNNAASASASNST

| Compound | IC50 |
| --- | --- |
| N#Cc1ccc2c(c1)C(c1ccc3c(n1)CCCC3O)C(=O)N2 (centres unmarked) [Example 1, 3-(5-Hydroxy-5,6,7,8-tetrahydroquinolin-2-yl)-2-oxoindoline-5-carbonitrile] | < 100 nM |
| N#Cc1ccc2c(c1)C(c1ccc3c(n1)CCNC3)C(=O)N2 (centres unmarked) [Example 2, 2-Oxo-3-(5,6,7,8-tetrahydro-1,6-naphthyridin-2-yl)indoline-5-carbonitrile] | < 100 nM |
| CC(C)(C)OC(=O)N1CCc2nc(C3C(=O)Nc4ccc(C#N)cc43)ccc2C1 (centres unmarked) [Example 2.2, tert-Butyl 2-(5-cyano-2-oxoindolin-3-yl)-7,8-dihydro-1,6-naphthyridine-6(5H)-carboxylate] | < 100 nM |
| N#Cc1ccc2c(c1)C(c1ccc3c(n1)CNC3)C(=O)N2 (centres unmarked) [Example 5, 3-(6,7-Dihydro-5H-pyrrolo[3,4-b]pyridin-2-yl)-2-oxoindoline-5-carbonitrile hydrochloride] | < 100 nM |
| COC1CCCc2nc(C3C(=O)Nc4ccc(C#N)cc43)ccc21 (centres unmarked) [Example 6, 3-(5-Methoxy-5,6,7,8-tetrahydroquinolin-2-yl)-2-oxoindoline-5-carbonitrile] | < 100 nM |

— patent publication US10100048B2, “Heterocyclic compounds and their use as glycogen synthase kinase-3 inhibitors” (AbbVie Deutschland GmbH & Co. KG, priority 2010, dated 2018)
